A short description of experiment [1]: ZenBio Cupric Ion Chelating (CIC) Assay. The experiment is classed as physicochemical. Particulars: calculated from a EDTA calibration curve, Pelargonic Acid at 775 μM. As to the method: The chelation property of the pelargonic acid was measured by using the ZenBio Cupric Ion Chelating (CIC) Assay (Cat #AOX-16). The assay measured the capacity of the pelargonic acid to chelate free cupric ions in solution, thereby inhibiting Cu(II) binding to pyrocatechol violet (PV) for generating a highly colored complex. The absorbance of the Cupric-PV complex was measured at a wavelength of 632 nm. The cupric ion chelating activity was determined as the percent of total PV over the Cu(II) binding. Ethylenediaminetetraacetic acid (EDTA), a well-known chelating agent, was used as a positive control. A series of EDTA with 7 different concentrations from 0 to 1000 μM were prepared and their corresponding absorbance measured and used as the calibration curve (Cupric ion chelating (%) vs. EDTA concentration). Percent cupric ion chelating was determined following the following calculations and Equation 1. The background absorbance value by averaging the absorbance values of the three background wells (no CuSO4 or sample). The average background absorbance was then subtracted from all the sample absorbance values. The maximal absorbance value (Absmax) was determined by averaging the absorbance values of the three wells containing CuSO4, PV and assay buffer. Abstest in Equation 1 is the absorbance of the test sample.
The calibration curve (Cupric ion chelating (%) vs. EDTA concentration) was fit by using a polynomial curve after log 10 transforming the concentrations (R2>0.98).

Experiment [2] has as its system bacteria (Table 6 pool) and fungi. Description: Challenge test, overall result (full bacteria pool and fungi). The experiment is classed as cell-based. As to the method: (§1) The preservative activity in representative rinse-off and leave-on formulations was evaluated using a modification of the Personal Care Products Council (PCPC—formerly the Cosmetic, Toiletry and Fragrance Association) protocol (Machtiger, et al. 2001. Determination of the Efficacy of Preservation of Non-Eye Area Water Miscible Cosmetic and Toiletry Formulations: Collaborative Study. J of AOAC International. 84:1, 101-109).
(§2) This evaluation was conducted using a four week, two or three-cycle (i.e., two-cycle for personal care and three-cycle for home care applications) microbial preservative efficacy test (i.e., challenge test) at 25° C. to determine the preservative efficacy of each treatment. Phenoxyethanol, benzyl alcohol and pelargonic acid were tested alone and in various combinations. The pelargonic acid used in the testing was purchased from Sigma-Aldrich. Combinations of phenoxyethanol or benzyl alcohol with benchmark multifunctional booster compounds were also tested for comparison. The preservative and booster ingredients were dosed and mixed thoroughly at room temperature into various formulations, specifically different personal care formulations including a lotion (leave-on, Table 1), a micellar water (rinse-off, Table 2), and a body wash formulation (rinse-off, Table 3) and different home care formulations including a manual dishwashing formulation (Table 4) and a liquid laundry detergent formulation (Table 5). […] Carbomers are a commonly used synthetic rheological modifier in personal care products. The formulation below was made by heating the aqueous (A) and oil (B) phases separately to 75-80° C. The oil phase was then poured into the aqueous phase and mixed by a homogenizer at approximately 45° C. The formed oil-in-water emulsion was cooled to room temperature. Triethanolamine and/or diluted sodium hydroxide was used to adjust the final pH to 6.3 or 6.5 (as indicated in the examples below).
(§3) After dosing, the samples were divided into two separate five gram aliquots. One aliquot was inoculated with 50 μl of a diluted bacterial pool, and the second aliquot was inoculated with 50 μl of a diluted fungal pool as described below. Unpreserved product samples were included as a growth control.
(§4) For personal care products, a mixed bacterial inoculum was prepared using 24-hour cultures of the test bacteria (Table 6) grown in trypticase soy broth (TSB). For home care products, a mixed bacterial inoculum was prepared using 24-hour cultures of the test bacteria either from Table 6 (full pool) or Table 7 (simplified pool) grown in trypticase soy broth (TSB). Details are disclosed in the home care examples below. Equal volumes of the bacterial test strains were combined and diluted one to ten in phosphate buffer to obtain an inoculum of approximately 5×10^7 to 5×10^8 colony forming units per ml (cfu/ml). The test samples were inoculated with 1% of the mixed bacterial inoculum. For both personal care and home care products, a mixed fungal inoculum was prepared using cell suspensions of the yeast Candida albicans ATCC #10231 and the mold Aspergillus brasiliensis ATCC #16404 in phosphate buffer. Equal volumes of the fungal test strains were combined and diluted one to ten with phosphate buffer to obtain an inoculum of approximately 5×10^6 to 5×10^7 cfu/ml. The test samples were inoculated with 1% of the mixed fungal inoculum.
(§5) For personal care products, the samples were subjected to two microbial challenges at time zero and inoculated a second time after seven days. For home care products, the samples were subjected to three microbial challenges at time zero and inoculated a second and third time after seven and fourteen days, respectively. The number of microorganisms added to each sample was determined by a standard Most Probable Number (MPN) determination in Trypticase Soy Broth (TSB) for bacteria and Potato Dextrose Broth (PDB) for fungi. Samples were incubated at 25° C. for the test duration of four weeks.

Experiment [3] has as its system mixed fungal inoculum: Candida albicans ATCC #10231 and Aspergillus brasiliensis ATCC #16404. Description: Challenge test (preservative efficacy), mixed fungal inoculum. In kind it is cell-based. As to the method:
as §1, §2, §3, §4, §5

For experiment [4], the system named is mixed bacterial inoculum (Table 6). Description: Challenge test (preservative efficacy), mixed bacterial inoculum, full pool (Table 6). The experiment is classed as cell-based. As to the method: as §1, §2, §3, §4, §5
Experiment [5] deals with bacteria (Table 7 pool) and fungi. Description: Challenge test, overall result (simplified bacteria pool and fungi). The experiment is classed as cell-based. Particulars: dosed 0.02 wt %. As to the method: as §1, §2, §3, §4, §5
The test system of experiment [6] is mixed bacterial inoculum for home care (Table 7). Description: Challenge test (preservative efficacy), mixed bacterial inoculum, simplified pool (Table 7). Particulars: dosed 0.02 wt %. In kind it is cell-based, Pseudomonas aeruginosa, Staphylococcus aureus. As to the method: as §1, §2, §3, §4, §5
[7] abbreviates: body wash, pH 6.5, Example 1E, dosed 0.5 wt %.
Where [8] appears, read: micellar water, pH 6.0, Example 1B, dosed 0.5 wt %.
Setting [9] is: micellar water, pH 6.0, bacteria inoculation ~10^7 cfu/ml, Example 1B, dosed 0.5 wt %.
The mark [10] stands for this setting: lotion with carbomer, pH 6.3, Example 1A, dosed 0.4 wt %.
The mark [11] stands for this setting: micellar water, pH 6.0, Example 1B, dosed 0.3 wt %.
Setting [12] is: micellar water, pH 6.0, Example 1C, dosed 0.3 wt %.
[13] abbreviates: liquid laundry detergent, pH 7.5, Example 1H, dosed 0.02 wt %.
The mark [14] stands for this setting: lotion with carbomer, pH 6.5, Example 1I, dosed 0.016 wt %.

Turning to `CCCCC(CC)COCC(O)CO` (stereo not shown) [2-ethyl-hexyl glycerin (EHG), 2-ethyl-hexyl glycerin], the “Calculated EDTA equivalent” value was around 0 µM in experiment [1] (listed as Ethylhexylglycerin) and ~ 0 μM in experiment [1] (listed as ethylhexylglycerin). Moreover, the “Overall Result” value in experiment [2] (setting [7]) and in experiment [2] (setting [8]) was “Fail” each time. Moreover, the “Fungi growth rating Result” value in experiment [3] (setting [7]) and in experiment [3] (setting [8]) was “Fail (growth rating score caused by fungi of more than 2 at days 21-28 of the testing period)” in each case. The “Bacteria growth rating Result” value in experiment [4] (setting [7]) and in experiment [4] (setting [9]) was “Fail (growth rating score caused by bacteria of 2 or more at days 21-28 of the testing period)” in each case.

As to `CCCCC(O)CO` (stereo not shown) [1,2 hexanediol], in experiment [2] (setting [8]), the “Overall Result” value is “Fail”. Also, in experiment [3] (setting [8]), the “Fungi growth rating Result” value is listed as “Fail (growth rating score caused by fungi of more than 2 at days 21-28 of the testing period)”. For the same compound, in experiment [4] (setting [9]), the “Bacteria growth rating Result” value is “Pass (growth rating score caused by bacteria of 1 or less at days 21-28 of the testing period)”.

Regarding `OCc1ccccc1` [Benzyl Alcohol (BA), benzyl alcohol], the “Overall Result” value in experiment [2] (setting [7]), in experiment [2] (setting [10]), in experiment [2] (setting [11]) and in experiment [2] (setting [12]) was “Fail” each time. The “Fungi growth rating Result” value in experiment [3] (setting [7]) was “Pass (growth rating score caused by fungi of 2 or less at days 21-28 of the testing period)”; in experiment [3] (setting [10]), “Fail (growth rating score caused by fungi of more than 2 at days 21-28 of the testing period)”; in experiment [3] (setting [11]), “Fail (growth rating score caused by fungi of more than 2 at days 21-28 of the testing period)”; in experiment [3] (setting [12]), “Fail (growth rating score caused by fungi of more than 2 at days 21-28 of the testing period)”. For the same compound, the “Bacteria growth rating Result” value is listed as “Fail (growth rating score caused by bacteria of 2 or more at days 21-28 of the testing period)” in experiment [4] (setting [7]); “Fail (growth rating score caused by bacteria of 2 or more at days 21-28 of the testing period)” in experiment [4] (setting [10]); “Fail (growth rating score caused by bacteria of 2 or more at days 21-28 of the testing period)” in experiment [4] (lotion with carbomer, pH 6.3, Example 1D, dosed 0.4 wt %); “Fail (growth rating score caused by bacteria of 2 or more at days 21-28 of the testing period)” in experiment [4] (lotion with carbomer, pH 6.3, Example 1D, dosed 0.8 wt %); “Pass (growth rating score caused by bacteria of 1 or less at days 21-28 of the testing period)” in experiment [4] (micellar water, pH 6.0, bacteria inoculation ~10^7 cfu/ml, Example 1B, dosed 0.3 wt %); “Fail (growth rating score caused by bacteria of 2 or more at days 21-28 of the testing period)” in experiment [4] (micellar water, pH 6.0, bacteria inoculation ~10^8 cfu/ml, Example 1C, dosed 0.3 wt %).

In the case of `CCCCCCCC(=O)NO` [Caprylhydroxamic acid (CHA), Caprylhydroxamic acid], the “Overall Result” value is recorded as “Fail” in experiment [5] (liquid laundry detergent, pH 7.5, Example 1G); “Fail” in experiment [5] (manual dishwashing formulation, pH 5.5, Example 1F); “Fail” in experiment [2] (setting [13]); “Fail” in experiment [2] (setting [14]). The “Fungi growth rating Result” value in experiment [3] (liquid laundry detergent, pH 7.5, Example 1G, dosed 0.02 wt %) is given as “Fail (growth rating score caused by fungi of more than 2 at days 21-28 of the testing period)”; in experiment [3] (setting [13]), “Fail (growth rating score caused by fungi of more than 2 at days 21-28 of the testing period)”; in experiment [3] (setting [14]), “Fail (growth rating score caused by fungi of more than 2 at days 21-28 of the testing period)”; in experiment [3] (manual dishwashing formulation, pH 5.5, Example 1F, dosed 0.02 wt %), “Fail (growth rating score caused by fungi of more than 2 at days 21-28 of the testing period)”. Further, the “Bacteria growth rating Result” value in experiment [6] (liquid laundry detergent, pH 7.5, simplified bacteria pool, Example 1G) was “Fail (growth rating score caused by bacteria of 2 or more at days 21-28 of the testing period)”; in experiment [6] (manual dishwashing formulation, pH 5.5, simplified bacteria pool, Example 1F) it was “Fail (growth rating score caused by bacteria of 2 or more at days 21-28 of the testing period)”; in experiment [4] (liquid laundry detergent, pH 7.5, full bacteria pool, Example 1H, dosed 0.02 wt %) it was “Fail (growth rating score caused by bacteria of 2 or more at days 21-28 of the testing period)”; in experiment [4] (setting [14]), “Fail (growth rating score caused by bacteria of 2 or more at days 21-28 of the testing period)”.

The values are drawn from US20260191192A1, “ANTIMICROBIAL COMPOSITIONS COMPRISING PELARGONIC ACID” (LANXESS Corporation, priority 2023, published 2026).
